{"source": "patent US7732563B2", "about": "“Cloning, sequencing and expression of a gene encoding an eukaryotic amino acid racemase, and diagnostic, therapeutic, and vaccination applications of parasite and viral mitogens” (priority 1999, dated 2010)", "key": {"rTcPA45 proline racemase": {"target": "T1, rTcPA45 proline racemase (Trypanosoma cruzi, UniProt Q4DA80)", "T1 construct": "made in house; host or cells: E. coli (pET28b(+))", "T1 sequence (Q4DA80 30-423)": "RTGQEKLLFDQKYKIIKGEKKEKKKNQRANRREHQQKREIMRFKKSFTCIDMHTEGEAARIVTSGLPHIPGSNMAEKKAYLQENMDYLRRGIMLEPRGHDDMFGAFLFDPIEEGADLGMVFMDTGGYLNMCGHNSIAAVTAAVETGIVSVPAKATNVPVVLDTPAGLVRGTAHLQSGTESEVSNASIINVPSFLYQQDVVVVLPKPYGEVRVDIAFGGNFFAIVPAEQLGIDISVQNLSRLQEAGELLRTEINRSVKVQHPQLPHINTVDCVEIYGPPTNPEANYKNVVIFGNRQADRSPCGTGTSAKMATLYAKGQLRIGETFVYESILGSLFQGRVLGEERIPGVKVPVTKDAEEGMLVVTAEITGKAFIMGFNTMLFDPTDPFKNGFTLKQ", "type": "biochemical", "conditions": "80 mM L-proline; inhibitors 6 mM to 100 mM", "description": "To investigate the genomic organization and transcription of the Tc45 gene, Southern and Northern blot analyses were done. FIG. 4 depicts the results of characterization of rTcPA45 activities. FIG. 4, part a, is an 8% SDS-PAGE gel of rTcPA45 (Coomasie blue staining). Part b depicts the proliferative activity of total splenocytes (5×10^4 cells/well) in the presence of increasing concentrations of rTcPA45 (μg/ml). […] Reaction conditions were: 0.2 M Na-acetate/25 mM β-mercaptoethanol buffer, pH6, rTcPA45 (3 μg/ml), 30 min incubation at 37° C. in 500 μl. The reaction was stopped by incubating for 10 min at 80° C. […] Reactions were carried out for 30 min at 37° C. and stopped for 5 min at 80° C. All reagents and inhibitors were purchased from Sigma. The shift in optical rotation was measured in a Polarimeter 241 MC (Perkin Elmer).\n3 μg of rTcPA45 was diluted in 500 μl of buffer (0.2M NaOAc, […] β-mercaptoethanol, pH6.0) containing different concentrations of the substrate (10-80 mM or L- or D-proline). (See FIG. 4c.) The reaction was incubated for 30-60 minutes at 37° C. in a water bath, followed by heat inactivation of the enzyme for 10 minutes at 80° C. Each sample is diluted to 1.5 ml with water and the mixture submitted to measurement of optical rotation using a polarimeter, at 365 nm. A sample without enzyme is used as a control. For optimal pH determination, buffer systems with NaOAc, phosphate, and Tris were used with pH ranging from 4.0-8.2. Curve of temperature was performed between 27° C. to 47° C.\nThe percent of racemization of different concentrations of L-proline, D-proline, L-hydroxy-proline and D-hydroxy-proline substrates was calculated by incubating a 500-μl mixture of 3 μg TcPA45 and 10-80 mM substrate in 0.2 M sodium acetate and 25 mM β-mercaptoethanol, pH 6, for 30 min at 37° C. The reaction was stopped by incubation for 10 min at 80° C. Water (1 ml) was then added, and the optical rotation was measured in polarimeter 241 MC (Perkin Elmer, Montignyle Bretonneux, France) at a wavelength of 365 nm, in a cell with a path length of 10 cm. The percent inhibition of racemization of 80 mM L-proline was determined in the presence of different concentrations of several specific and nonspecific inhibitors ranging in concentration from 6 mM to 100 mM. The percent racemization of 80 mM L-proline as a function of pH was determined using 0.2 M sodium acetate, potassium phosphate and Tris-HCl buffers containing 25 mM β-mercaptoethanol; reactions were incubated for 30 min at 37° C. as described above. All reagents and inhibitors were purchased from Sigma."}, "total spleen cells": {"system": "total spleen cells", "experiment": "In vitro proliferation assay of splenocytes (3H-thymidine uptake)", "type": "cell-based, mouse", "conditions": "for mitogenic activity of rTcPA45 after pre-incubation with inhibitor of proline racemase: 50 μg/ml rTcPA45 pre-incubated with 1 mM inhibitor; for 3H-thymidine uptake: after 48 h, ConA 10 μg/ml, LPS 5 μg/ml, BALB/c splenocytes 5×10^4 cells/well; for mitogenic activity of rTcPA45 with cultures supplemented with increasing amounts of substrate: 3 mM to 50 mM substrate, dose-dependent, competitive inhibition; for cell proliferation of lymphocytes with substrate alone: 50 mM alone", "description": "Briefly, freshly recovered splenocytes from 8 week old male Balb/c mice seeded at a concentration of 5×10^4 cells/well were incubated for 24, 48 and 72 h in 5% FCS RPMI-1640 medium. A 16 h ^3H-thymidine pulse at 1 μCi/well was performed before harvesting. ^3H-Thymidine uptake was determined in a beta-plate liquid scintillation counter (LKB-Wallac). All points were done in triplicate and the corresponding standard deviation calculated. For comparison, ^3H-thymidine uptake after 48 h in the presence of ConA (10 μg/ml) and LPS (5 μg/ml) was 32000 c.p.m. and 3500 c.p.m., respectively. T-cell depletion was performed by incubating freshly recovered spleen cells for 30 min at 37° C. in the presence of anti-Thy 1.2 monoclonal antibody (Cedarlane) and rabbit complement (Cedarlane). In order to rule out a possible mitogenic effect due to LPS contamination in samples, proliferation assays were also performed on freshly recovered splenocytes from the LPS non-responder mouse strain C3H/Hej. Same levels of proliferation were verified. Balb/c mice were purchased from Charles River, France. C3H/Hej mice were maintained in our animal facilities.\nIn vitro proliferation is accomplished using freshly recovered splenocytes from BALB/c mice seeded at a density of 5×10^4 cells/well and incubated for 24, 48 and 72 h with increasing concentrations of total parasite supernatants or recombinant TcPa45 protein or other mitogen (0.07-200 μg/ml) with 0.5 μg/ml of the HPLC fractions, or with the conventionally used mitogens concanavalin A (10 μg/ml) and lipopolysaccharide (5 μg/ml) in 5% FCS in RPMI-1640 complete medium. T-cell depletion is accomplished by incubating freshly recovered spleen cells for 30 min. at 37° C. in the presence of monoclonal antibodies against Thy 1.2 and rabbit complement (Cedarlane, Le Perray en Yvelines, France). Analysis of proliferative activity of total splenocytes (5×10^4 cells/well) in the presence of 50 μg/ml enzymatically active rTcPA45 or other mitogen is also compared with the proliferation obtained using the same amounts of rTcPA45 protein or other mitogen lacking racemase activity (by heating for 10 min. at […] or by long term storage at 4° C.). Inhibition of proliferation is obtained by adding to the splenocyte cultures 50 μg/ml rTcPA45 or other mitogen pre-incubated for 10 min. at 37° C. with 1 mM inhibitor, either specific (pyrrole-2-carboxylic acid) or nonspecific (iodoacetamide or iodoacetate). Competitive assays of proliferative activity by 50 μg/ml rtcPA45 or other mitogen are done by adding increasing concentrations of specific substrates i.e., proline racemase substrates (L- or D-proline) for the mitogen rTcPA45 ranging from 3 mM to 50 mM. Controls include the incubation of splenocytes (5×10^4 cells/well) with substrate alone, i.e., 50 mM L- or D-proline in RPMI medium alone for prline racemase. Cultures are collected after a 16-hour pulse or 1 μCi/well ^3H-thymidine uptake was determined in a beta-plate liquid scintillation counter (LKB-Wallac, Orsay, France). All data points are obtained in triplicate and the corresponding standard deviation is calculated.\n5×10^5 naive spleen cells/well (96 well plate) were stimulated in vitro with different doses of rTcPA45 (ranging in FIG. 4b from 0.8 to 200 μg/ml final) for 24, 48 and 72 h, at 37° C., 5% CO2. Cultures were pulsed with ^3H-Thymidine (1 μCi/well) for 16-18 h before harvesting. ^3H-thymidine incorporation was obtained after counting using a beta-plate. Results present arithmetic means of c.p.m. (counts/minute) from 6 wells/dose of rTcPA45 or wells containing medium alone (+/−SD of the means). (FIG. 4b)"}}, "data": [{"compound": "O=C(O)CI", "note": "[iodoacetate, reference compound]", "values": [{"measurement": "inhibition of rTcPA45 enzymatic (racemase) activity", "setting": "rTcPA45 proline racemase", "result": "inhibited to different extents"}, {"measurement": "mitogenic activity of rTcPA45 after pre-incubation with inhibitor of proline racemase", "setting": "total spleen cells", "result": "abolished"}]}, {"compound": "lipopolysaccharide [LPS]", "values": [{"measurement": "3H-thymidine uptake", "setting": "total spleen cells", "result": 3500, "unit": "c.p.m."}, {"measurement": "3H-thymidine uptake", "setting": "total spleen cells; listed as lipopolysaccharide", "result": "3,500 c.p.m."}]}, {"compound": "O=C(O)/C=C\\C(=O)O", "note": "[maleic acid, reference compound]", "values": [{"measurement": "inhibition of rTcPA45 enzymatic (racemase) activity", "setting": "rTcPA45 proline racemase", "result": "inhibited to different extents"}]}, {"compound": "NC(=O)CI", "note": "[iodoacetamide, reference compound]", "values": [{"measurement": "inhibition of rTcPA45 enzymatic (racemase) activity", "setting": "rTcPA45 proline racemase", "result": "inhibited to different extents"}, {"measurement": "mitogenic activity of rTcPA45 after pre-incubation with inhibitor of proline racemase", "setting": "total spleen cells", "result": "abolished"}]}, {"compound": "O=C(O)c1ccc[nH]1", "note": "[pyrrole-2-carboxylic acid, reference compound]", "values": [{"measurement": "inhibition of rTcPA45 enzymatic (racemase) activity", "setting": "rTcPA45 proline racemase", "result": "inhibited to different extents"}, {"measurement": "mitogenic activity of rTcPA45 after pre-incubation with inhibitor of proline racemase", "setting": "total spleen cells", "result": "abolished"}]}, {"compound": "concanavalin A [ConA]", "values": [{"measurement": "3H-thymidine uptake", "setting": "total spleen cells", "result": 32000, "unit": "c.p.m."}, {"measurement": "3H-thymidine uptake", "setting": "total spleen cells; listed as concavalin A", "result": "32,000 c.p.m."}]}, {"compound": "O=C(O)[C@@H]1CCCN1", "note": "[L-proline]", "values": [{"measurement": "mitogenic activity of rTcPA45 with cultures supplemented with increasing amounts of substrate", "setting": "total spleen cells", "result": "affected considerably"}, {"measurement": "cell proliferation of lymphocytes with substrate alone", "setting": "total spleen cells", "result": "no cell proliferation"}]}, {"compound": "O=C(O)[C@H]1CCCN1", "note": "[D-proline]", "values": [{"measurement": "mitogenic activity of rTcPA45 with cultures supplemented with increasing amounts of substrate", "setting": "total spleen cells", "result": "affected considerably"}, {"measurement": "cell proliferation of lymphocytes with substrate alone", "setting": "total spleen cells", "result": "no cell proliferation"}]}]}
